Laboratory results from PubChem BioAssay (NCI).
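Protocol summary: plate cells (96-well), add compound at 5 concentrations, incubate 48 h, interpolate endpoints linearly. GI50 = concentration required for 50% inhibition of growth. The concentration for full growth arrest is given as TGI.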

What was measured:
Assay in all cases: inhibition of tumour cell growth, NCI panel, 48 h
SK-MEL-5 melanoma = system: SK-MEL-5 melanoma
SK-MEL-2 melanoma = system: SK-MEL-2 melanoma
HCT-15 colon = system: HCT-15 colon
TK-10 renal = system: TK-10 renal
M14 melanoma = system: M14 melanoma
OVCAR-5 ovarian = system: OVCAR-5 ovarian
SF-539 CNS = system: SF-539 CNS
UACC-62 melanoma = system: UACC-62 melanoma
786-0 renal = system: 786-0 renal

| SMILES | TGI (SK-MEL-5 melanoma) [µM] | TGI (SK-MEL-2 melanoma) [µM] | TGI (HCT-15 colon) [µM] | TGI (TK-10 renal) [µM] | TGI (M14 melanoma) [µM] | TGI (OVCAR-5 ovarian) [µM] | TGI (SF-539 CNS) [µM] | TGI (UACC-62 melanoma) [µM] | TGI (786-0 renal) [µM] | GI50 (SK-MEL-5 melanoma) [nM] | GI50 (SK-MEL-2 melanoma) [nM] | GI50 (HCT-15 colon) [nM] | GI50 (TK-10 renal) [µM] | GI50 (M14 melanoma) [µM] | GI50 (OVCAR-5 ovarian) [µM] | GI50 (SF-539 CNS) [nM] | GI50 (UACC-62 melanoma) [µM] | GI50 (786-0 renal) [µM] |
| --- | --- | --- | --- | --- | --- | --- | --- | --- | --- | --- | --- | --- | --- | --- | --- | --- | --- | --- |
| CCCCC(C(=O)C(=O)Nc1ccccc1CC)C(=O)C(C)C (centres undefined) | > 100 | > 100 | > 100 | > 100 | > 100 | > 100 | > 100 | > 100 | > 100 |  |  |  |  |  |  |  |  |  |
| COc1ccc([C@@H]2[C@@H](Oc3ccccc3)C(=O)N2c2cc(OC)c(OC)c(OC)c2)cc1F | 1.49 | > 100 | > 100 | > 100 | 1.72 | > 100 | 0.709 | > 100 | > 100 | 50.4 | 447 | 155 | 6.52 | 0.0818 | 0.421 | 73.5 | 0.0419 | 0.198 |
| COc1ccc(C(C)Nc2cc(OC)c(OC)c(OC)c2)cc1 (centres undefined) | > 100 | 81.1 | > 100 | > 100 | > 100 | > 100 | 12.8 | > 100 | > 100 |  |  |  |  |  |  |  |  |  |
| COc1cc2c(cc1OCCN1CCN(CCN3C(=O)c4cccc5cccc(c45)C3=O)CC1)N=C[C@@H]1CCCN1C2=O | 29.5 | 51.1 | 31.1 | 37.1 | 28.7 | 35 | 45.6 | 35 | 33.4 | 16000 | 24600 | 15800 | 19.9 | 14.5 | 19 | 20800 | 18.2 | 18.2 |
| O=C(CCN1CCOCC1)Nc1ccc(Cn2nnc3c2C(=O)c2nnn(Cc4ccc(NC(=O)CCN5CCOCC5)cc4)c2C3=O)cc1 | 1.71 |  | > 100 | > 100 | > 23.1 | > 100 | 5.11 | 3.14 | > 100 | 590 |  | > 100000 | > 100 | 6.74 | > 100 | 913 | 1.53 | > 100 |
| CC(C)CCCC(C)C1CCC2C3CC([N+](=O)[O-])=C4CC(O)CCC4(C)C3CCC12C (centres undefined) |  | 29 | 33.6 | 39.6 | 28.8 |  | 28.9 | 40.3 | 33 |  |  |  |  |  |  |  |  |  |
| ON1CCc2c([nH]c3ccccc23)C1c1ccc(Cl)cc1 (centres undefined) |  | 64.5 |  | > 100 | > 100 | 99.1 | > 100 | > 100 | > 100 |  |  |  |  |  |  |  |  |  |
| O=C(CC1(O)C(=O)Nc2c(Cl)ccc(Cl)c21)c1ccc(Cl)cc1 (centres undefined) |  | 86.4 | > 100 | > 100 | 69.1 | > 100 | 50.6 | 48.9 | 32.1 |  |  |  |  |  |  |  |  |  |
| COc1cc2c(Oc3ccc(-c4cnc(Nc5ccc(F)cc5)n(C)c4=O)cc3F)ccnc2cc1OCCCN1CCOCC1 | 2.77 | 3.19 | 2.75 | 3.92 | 1.82 | 2.45 | 1.62 |  | 3.1 | 1450 | 1530 | 1180 | 1.94 | 0.442 | 1.04 | 464 |  | 1.54 |
| O/N=C1/C(=C/c2ccc(OCc3ccccc3)cc2)CCCC1C(NO)c1ccc(OCc2ccccc2)cc1 (centres undefined) | > 100 | > 100 | > 100 |  | > 100 | > 100 | > 100 |  | > 100 |  |  |  |  |  |  |  |  |  |
| N#Cc1c(CC(=O)O)cc(=O)n2c1[nH]c1ccccc12 | > 100 | > 100 | > 100 | > 100 | > 100 | > 100 | > 100 |  | > 100 |  |  |  |  |  |  |  |  |  |
| CNS(=O)(=O)NNS(=O)(=O)c1ccc(C)cc1 | > 100 | > 100 |  | > 100 | > 100 | > 100 | > 100 | > 100 | > 100 |  |  |  |  |  |  |  |  |  |
| O=C(/C=C(\[O-])c1ccccc1)CCCCCCC(=O)/C=C(\[O-])c1ccccc1.O=C(/C=C(\[O-])c1ccccc1)CCCCCCC(=O)/C=C(\[O-])c1ccccc1.O=C(/C=C(\[O-])c1ccccc1)CCCCCCC(=O)/C=C(\[O-])c1ccccc1.[Y+3].[Y+3] | > 50 | > 50 |  | > 50 | > 50 | > 50 | > 50 | > 50 | > 50 | 34800 | > 50000 |  | > 50 | > 50 | > 50 | 31800 | 47.5 | 21.7 |
| CCCCCNC(=O)CCCCCCCCCCCNC(=O)CCCCCCCCCCN1C=CC(=CC=C2C=CC(=O)C=C2)C=C1 | > 100 |  | > 100 |  | > 100 | > 100 | > 100 | > 100 | > 100 |  |  |  |  |  |  |  |  |  |
